# Assay results from US20240207302A1, “ANTIVIRAL COMPOUNDS, METHODS FOR THE MANUFACTURING OF COMPOUNDS, ANTIVIRAL PHARMACEUTICAL COMPOSITION, USE OF THE COMPOUNDS AND METHOD FOR THE ORAL TREATMENT OF CORONAVIRUS INFECTION AND RELATED DISEASES THEREOF” (priority 2021, published 2024).
# Read-outs that look alike come from different tables or passages of the source.
# Legend:
# [1] = tested on: SARS-COV-2 viral RNA; test: Immunoprecipitation of viral RNA with anti-kinetin antibody, RT-PCR; type: cell-based; details: SARS-COV-2-infected calu-3 cells
# [2] = Pharmacokinetics of MB-905 in plasma of mice
# Text: FIG. 8A to 8F. […] The number of animals is shown in each figure legends. The vertical lines represent the mean±the standard error deviation.
# All animals were maintained under SPF (Specific Pathogen Frec) animal conditions and were obtained from CIEnP facility, whose breeding colonies were purchased from Charles River Laboratories (USA). […] The samples collected from each animal and at each collection time were processed and analyzed individually. For the analysis of plasma and lung, UPLC-MS/MS equipment was used, whose system consists of a Xevo TQS mass spectrometer with a triple-quadrupole mass analyzer, from Waters. The mass spectrometer is coupled to a high-performance liquid chromatograph (Acquity H-Class). The acquisition and treatment of the data were performed with the MassLynx software. […] The calculation of bioavailability was performed using the following equation: F (%)=[(Intravenous dose×oral AUC)/(Oral dose×Intravenous AUC)]×100.
# [3] = Pharmacokinetics of MB-905 in plasma of the rat; type: in vivo
# Protocol: The pharmacokinetic assay was performed by using mice of the CDI strain (20-30 g) or rat Sprague Dawley (250-300 g) of both sexes from the Center of Innovation and Preclinical Studies (CIEnP) vivarium. […] After oral […] administration, blood was collected at times of 0.25, 0.5, 1, 2, 4, 8 and 24, while after intravenous administration the collection times were 0.083, 0.25, 0.5, 1, 2 and 4 hours. […] The pharmacokinetic parameters evaluated were: AUC (AUC 0-T or, AUC 0-∞), Cmax, Tmax, T1/2, volume of distribution, clearance, elimination constant and bioavailability.
# [4] = Cytotoxicity assay (XTT) in Huh-7 cells; type: cell-based; details: human
# Protocol: In parallel, cytotoxicity assays were performed. Monolayers of 1.5×10^4 cells in 96-well plates were treated for 3 days with various concentrations (semi-log dilutions from 1,000 to 10 μM) of the antiviral drugs. Then, 5 mg/mL 2,3-bis-(2-methoxy-4-nitro-5-sulfophenyl)-2H-tetrazolium-5-carboxanilide (XTT) in DMEM was added to the cells in the presence of 0.01% of N-methyl dibenzopyrazine methyl sulfate (PMS).
# [5] = Pharmacokinetics of MB-905 in three pre-formulations in mice; type: in vivo
# Text: FIG. 21. Pharmacokinetics of MB-905 in three pre-formulations in mice.
# Thus, the pre-formulation was used for most subsequent in vivo studies.
# [6] = tested on: SARS-COV-2 VoC gamma; type: in vivo, mice
# [7] = both, CD1, mouse, plasma, iv, 3 mg/kg
# [8] = both, CD1, mouse, plasma, po, 30 mg/kg
# [9] = both sexes, Sprague Dawley, rat, plasma, po, 10 mg/kg, 10 mg/kg (v.o.)
# [10] = both sexes, Sprague Dawley, rat, plasma, po, 30 mg/kg, 30 mg/kg (v.o.)
# [11] = mouse, plasma, po, 3 mg/kg, 5% Carboxymethylcellulose, 3 mg/kg (v.o.)
# [12] = mouse, plasma, po, 3 mg/kg, 5% Tween80 + 95% PEG400, 3 mg/kg (p.o.)
# [13] = mouse, plasma, po, 3 mg/kg, 5% ethanol, 30% Propylene Glycol, 45% PEG 400, 20% water, 3 mg/kg (v.o.)
# [14] = mouse, plasma, po, 30 mg/kg, 5% Carboxymethylcellulose, 30 mg/kg (p.o.)
# [15] = mouse, plasma, po, 30 mg/kg, 5% Tween80 + 95% PEG400, 30 mg/kg (p.o.)
# [16] = mouse, plasma, po, 30 mg/kg, 5% ethanol, 30% Propylene Glycol, 45% PEG 400, 20% water, 30 mg/kg (p.o.)
# [17] = mouse, plasma, po, 550 mg/kg, 5% ethanol, 30% Propylene Glycol, 45% PEG 400, 20% water, 550 mg/kg (p.o.)
# [18] = 140 mg/kg/day alone and in combination with DTG
# [19] = 140 mg/kg/day, vs untreated animals
compound,measurement,setting,value
"c1coc(CNc2ncnc3[nH]cnc23)c1 [MB-905, kinetin]",levels of N6-furfuryladenine in viral RNA vs isotype control and nil-treated cells,[1],more than 10 fold
same,Cmax,[2]; [7],135 ng/mL
same,Vd,[2]; [7],19.4 L/kg
same,AUC(0-t),[2]; [8],366 ng·h/mL
same,Cmax,[2]; [8],570 ng/mL
same,half-life,[2]; [8],66 min
same,Cmax,"[2]; both, CD1, mouse, plasma, po, 550 mg/kg",1050 ng/mL
same,AUCall,"[2]; mice plasma, 3 mg/kg (i.v.)",66.41 ng·h/mL
same,CL,"[2]; mice plasma, 3 mg/kg (i.v.)",918.38 mL/min/kg
same,Cmax,"[2]; mice plasma, 3 mg/kg (i.v.)",155.16 ng/mL
same,F,"[2]; mice plasma, 3 mg/kg (i.v.)",100%
same,Ke,"[2]; mice plasma, 3 mg/kg (i.v.)",3.09 h⁻¹
same,T1/2,"[2]; mice plasma, 3 mg/kg (i.v.)",13.2 min
same,Tmax,"[2]; mice plasma, 3 mg/kg (i.v.)",4.98 min
same,Vz,"[2]; mice plasma, 3 mg/kg (i.v.)",19.04 L/kg
same,AUClast,"[2]; mice plasma, 3 mg/kg (i.v.), 3 mg/kg",55.58 ng·h/mL
same,CL,"[2]; mice plasma, 30 mg/kg (v.o.)",1060.15 mL/min/kg
same,Ke,"[2]; mice plasma, 30 mg/kg (v.o.)",0.62 h⁻¹
same,Vz,"[2]; mice plasma, 30 mg/kg (v.o.)",102.21 L/kg
same,F,"[2]; mice plasma, 30 mg/kg (v.o.), 30 mg/kg","53,5%"
same,Ke,"[2]; mice plasma, 550 mg/kg (v.o.)",0.25 h⁻¹
same,F,"[2]; mice plasma, 550 mg/kg (v.o.), 550 mg/kg",36.1%
same,F,[3]; 3 mg/kg (i.v.),100%
same,Cmax,"[3]; 3 mg/kg (i.v.), 3 mg/kg",123.61 ng/mL
same,Vz,"[3]; 3 mg/kg (i.v.), 3 mg/kg",10.40 L/kg
same,CL,[3]; 10 mg/kg (v.o.),241.09 mL/min/kg
same,Ke,[3]; 10 mg/kg (v.o.),0.47 h⁻¹
same,Vz,[3]; 10 mg/kg (v.o.),30.37 L/kg
same,Cmax,"[3]; 10 mg/kg (v.o.), 10 mg/kg",549.96 ng/mL
same,F,"[3]; 10 mg/kg (v.o.), 10 mg/kg",98.8%
same,T1/2,"[3]; 10 mg/kg (v.o.), 10 mg/kg",1.45 h
same,F,[3]; 30 mg/kg (v.o.),64.7%
same,Ke,[3]; 30 mg/kg (v.o.),0.18 h⁻¹
same,Vz,[3]; 30 mg/kg (v.o.),109.18 L/kg
same,CL,"[3]; 30 mg/kg (v.o.), 30 mg/kg",330.57 mL/min/kg
same,Cmax,"[3]; both sexes, Sprague Dawley, rat, plasma, iv, 3 mg/kg, 3 mg/kg (i.v.), read-out: Cmax",99.4 ng/mL
same,Vd,"[3]; both sexes, Sprague Dawley, rat, plasma, iv, 3 mg/kg, 3 mg/kg (i.v.), read-out: Vz",13.4 L/kg
same,AUC,[3]; [9],762 ng·h/mL
same,AUC(0-t),[3]; [9],666 ng·h/mL
same,Tmax,[3]; [9],15 min
same,half-life,[3]; [9],87.6 min
same,Cmax,"[3]; both sexes, Sprague Dawley, rat, plasma, po, 10 mg/kg, 10 mg/kg (v.o.), read-out: Cmax",545 ng/mL
same,AUC,[3]; [10],1500 ng·h/mL
same,AUC(0-t),[3]; [10],1500 ng·h/mL
same,CC50 at 3 days,[4],560 µM
same,Cmax,"[5]; 5% ethanol, 30% Propylene Glycol, 45% PEG 400, 20% water, 30 mg/kg (p.o.)",569.97 ng/mL
same,Cmax,"[5]; 5% ethanol, 30% Propylene Glycol, 45% PEG 400, 20% water, 550 mg/kg (p.o.)",1053.37 ng/mL
same,Tmax,"[5]; CD1, mouse, plasma, po, 3 mg/kg, 5% Carboxymethylcellulose, 3 mg/kg (v.o.)",15 min
same,Cmax,"[5]; CD1, mouse, plasma, po, 3 mg/kg, 5% Carboxymethylcellulose, 3 mg/kg (v.o.), read-out: Cmax",70.2 ng/mL
same,Tmax,"[5]; CD1, mouse, plasma, po, 3 mg/kg, 5% Tween80 + 95% PEG400, 3 mg/kg (p.o.)",15 min
same,Cmax,"[5]; CD1, mouse, plasma, po, 3 mg/kg, 5% Tween80 + 95% PEG400, 3 mg/kg (p.o.), read-out: Cmax",60.8 ng/mL
same,Tmax,"[5]; CD1, mouse, plasma, po, 3 mg/kg, 5% ethanol, 30% Propylene Glycol, 45% PEG 400, 20% water, 3 mg/kg (v.o.)",15 min
same,Cmax,"[5]; CD1, mouse, plasma, po, 3 mg/kg, 5% ethanol, 30% Propylene Glycol, 45% PEG 400, 20% water, 3 mg/kg (v.o.), read-out: Cmax",64 ng/mL
same,Tmax,"[5]; CD1, mouse, plasma, po, 30 mg/kg, 5% Carboxymethylcellulose, 30 mg/kg (p.o.)",15 min
same,Cmax,"[5]; CD1, mouse, plasma, po, 30 mg/kg, 5% Carboxymethylcellulose, 30 mg/kg (p.o.), read-out: Cmax",504 ng/mL
same,Tmax,"[5]; CD1, mouse, plasma, po, 30 mg/kg, 5% Tween80 + 95% PEG400, 30 mg/kg (p.o.)",15 min
same,Cmax,"[5]; CD1, mouse, plasma, po, 30 mg/kg, 5% Tween80 + 95% PEG400, 30 mg/kg (p.o.), read-out: Cmax",507 ng/mL
same,Tmax,"[5]; CD1, mouse, plasma, po, 300 mg/kg, 5% Carboxymethylcellulose, 300 mg/kg (p.o.)",480 min
same,Cmax,"[5]; CD1, mouse, plasma, po, 300 mg/kg, 5% Carboxymethylcellulose, 300 mg/kg (p.o.), read-out: Cmax",1020 ng/mL
same,Tmax,"[5]; CD1, mouse, plasma, po, 300 mg/kg, 5% Tween80 + 95% PEG400, 300 mg/kg (p.o.)",15 min
same,Cmax,"[5]; CD1, mouse, plasma, po, 300 mg/kg, 5% Tween80 + 95% PEG400, 300 mg/kg (p.o.), read-out: Cmax",1030 ng/mL
same,AUC,[5]; [11],107 ng·h/mL
same,half-life,[5]; [11],131 min
same,AUC,[5]; [12],153 ng·h/mL
same,half-life,[5]; [12],158 min
same,AUC,[5]; [13],98.4 ng·h/mL
same,half-life,[5]; [13],115 min
same,AUC,[5]; [14],525 ng·h/mL
same,half-life,[5]; [14],100 min
same,AUC,[5]; [15],1110 ng·h/mL
same,half-life,[5]; [15],136 min
same,AUC,[5]; [16],763 ng·h/mL
same,Tmax,[5]; [16],15 min
same,half-life,[5]; [16],217 min
same,AUC,"[5]; mouse, plasma, po, 300 mg/kg, 5% Carboxymethylcellulose, 300 mg/kg (p.o.)",14800 ng·h/mL
same,AUC,"[5]; mouse, plasma, po, 300 mg/kg, 5% Tween80 + 95% PEG400, 300 mg/kg (p.o.)",11500 ng·h/mL
same,AUC,[5]; [17],11600 ng·h/mL
same,Tmax,[5]; [17],60 min
same,half-life,[5]; [17],518 min
same,body weight,[6]; [18],sustain their masses beyond the threshold of euthanasia
same,overall clinical scores,[6]; [18],improved
same,virus RNA levels in the lungs,[6]; 140 mg/kg/day with or without DTG,did not alter
same,infectious titers,"[6]; 140 mg/kg/day with or without DTG, BAL",decreased significantly
same,IL-6 in BAL,[6]; [19],reduced
same,KC in BAL,[6]; [19],reduced
same,TNF-α in BAL,[6]; [19],reduced
same,inflammatory cells counts in BAL,[6]; [19],reduced
same,survival,[6]; 70 mg/kg/day oral with DTG,Higher survival rates
same,survival,"[6]; 140 mg/kg/day oral, combined or not with DTG",Higher survival rates
same,lung necrosis,[6]; alone or combined with DTG,reduced
